Experimental findings from ChEMBL document CHEMBL6103616, “Isolation and Biosynthesis of Hyellamide, a Glycosylated N-Acyltyrosine Derivative, from the Cyanobacterium Hyella patelloides LEGE 07179” (J Nat Prod, 2025) are described below.

The structures appear in SMILES notation. Activity calls are given as the source filed them. No cut-off for these calls is given here.

In the assay the test system is Bacillus subtilis. As to the kind of experiment: Antibacterial activity against Bacillus subtilis […] assessed as growth inhibition by agar disk diffusion method. Type of assay: functional, organism-based. A general note: A growth-free zone around the sample is the usual read-out of agar diffusion tests.

Consider `CCCCCCCCCCCCCC(=O)N/C=C/c1ccc(O[C@@H]2OC[C@@H](O)[C@H](OC(C)=O)[C@H]2O)cc1`, for which the result was inactive.
